Test results from ChEMBL document CHEMBL1123600, “N6-(2,2-diphenylethyl)adenosine, a novel adenosine receptor agonist with antipsychotic-like activity” (J Med Chem, 1987).

Tests used:
Mus musculus [1] = assay: Effect on Motor activity in mouse following i.p. administration.; assay type: functional; conditions: ip
Mus musculus [2] = assay: Effect on Ataxia in mouse following i.p. administration.; assay type: functional; conditions: ip
Adenosine receptor A1 = target: T1, Adenosine receptor A1 (Rattus norvegicus, UniProt P25099)
T1 sequence (P25099 whole entry): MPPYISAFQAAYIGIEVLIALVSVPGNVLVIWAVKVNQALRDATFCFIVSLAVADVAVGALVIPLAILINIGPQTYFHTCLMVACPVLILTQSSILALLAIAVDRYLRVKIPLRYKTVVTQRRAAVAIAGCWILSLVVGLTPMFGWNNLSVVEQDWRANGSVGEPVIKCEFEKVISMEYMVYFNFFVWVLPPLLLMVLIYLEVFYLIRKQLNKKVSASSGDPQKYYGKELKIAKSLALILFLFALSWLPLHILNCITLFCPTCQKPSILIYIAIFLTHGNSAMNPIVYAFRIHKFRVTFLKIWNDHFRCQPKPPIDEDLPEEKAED
Description: Binding affinity to adenosine A1 receptor in rat whole brain membranes by [3H]N6-cyclohexyladenosine displacement.

Rattus norvegicus [3] = organism: Rattus norvegicus; assay: Effect on Sidman conditioned avoidance in rat.; assay type: functional
Rattus norvegicus [4] = assay: Effect on Motor activity(MA) in rat was measured as ED50 by perorally administration of compound.; assay type: functional; conditions: po
Adenosine A2 receptor = Adenosine A2 receptor (Rattus norvegicus, UniProt P29276+P30543)
Description: Binding affinity to A2 adenosine receptor in rat striatal membranes by [3H]NECA (1-(6-amino-9H-purin-9-yl)-1-deoxy-N-ethyl-beta-D-ribofuranuronamide) displacement.

Rattus norvegicus [5] = assay: Effect on Ataxia(ATX) in rat was measured as ED50 by perorally administration of compound.; assay type: functional; conditions: po

| Compound | Ki (Adenosine receptor A1) [µM] | Ki (Adenosine A2 receptor) [µM] | ED50 (Mus musculus [1]) [mg/kg] | ED50 (Mus musculus [2]) [mg/kg] | ED50 (Rattus norvegicus [3]) [mg/kg] | ED50 (Rattus norvegicus [4]) [mg/kg] | ED50 (Rattus norvegicus [5]) [mg/kg] |
| --- | --- | --- | --- | --- | --- | --- | --- |
| CC(C)(CNc1ncnc2c1ncn2C1O[C@H](CO)[C@@H](O)[C@H]1O)c1ccccc1 (stereo partly specified) | 0.0162 | 0.32 | 6.7 | 30 |  |  |  |
| OC[C@H]1OC(n2cnc3c(NCC(c4ccccc4)(c4ccccc4)c4ccccc4)ncnc32)[C@H](O)[C@@H]1O (stereo partly specified) | 14.3 | 26 | 80 | > 100 |  |  |  |
| OC[C@H]1OC(n2cnc3c(NC(c4ccccc4)c4ccccc4)ncnc32)[C@H](O)[C@@H]1O (stereo partly specified) | 0.48 | 3.8 | 80 | > 100 |  |  |  |
| CC(CNc1ncnc2c1ncn2C1O[C@H](CO)[C@@H](O)[C@H]1O)(c1ccccc1)c1ccccc1 (stereo partly specified) | 0.037 | 0.03 | 7 | > 100 |  |  |  |
| CC(CNc1ncnc2c1ncn2[C@@H]1O[C@H](CO)[C@@H](O)[C@H]1O)c1ccccc1 (mixture of isomers) | 0.0024 | 0.098 | 0.5 | 7 |  |  |  |
| C[C@@H](Cc1ccccc1)Nc1ncnc2c1ncn2[C@@H]1OC(CO)[C@@H](O)[C@H]1O (single isomer, unassigned) |  |  | 16 | 75 |  |  |  |
| C[C@H](Cc1ccccc1)Nc1ncnc2c1ncn2[C@@H]1O[C@H](CO)[C@@H](O)[C@H]1O [(R)-PIA] |  |  | 0.8 | 2 |  |  |  |
| O=C(CCCN1CCC(O)(c2ccc(Cl)cc2)CC1)c1ccc(F)cc1 [HALOPERIDOL] |  |  | 0.27 | 12 | 0.3 | 0.24 | > 1 |
| CSc1ccc2c(c1)N(CCC1CCCCN1C)c1ccccc1S2 (stereo unspecified) [THIORIDAZINE] |  |  | 3.3 | 13 | 19.7 | 13.3 | > 30 |

The next lines start with results.

| Ki (Adenosine receptor A1) [µM] | Ki (Adenosine A2 receptor) [µM] | Compound | ED50 (Mus musculus [1]) [mg/kg] | ED50 (Mus musculus [2]) [mg/kg] | ED50 (Rattus norvegicus [3]) [mg/kg] | ED50 (Rattus norvegicus [4]) [mg/kg] | ED50 (Rattus norvegicus [5]) [mg/kg] |
| --- | --- | --- | --- | --- | --- | --- | --- |
| 0.0127 |  | OC[C@H]1O[C@@H](n2cnc3c(NCCc4ccccc4)ncnc32)[C@H](O)[C@@H]1O | 15 | > 100 |  |  |  |
| 0.0068 | 0.025 | OC[C@H]1O[C@@H](n2cnc3c(NCC(c4ccccc4)c4ccccc4)ncnc32)[C@H](O)[C@@H]1O | 1.3 | 145 | 2.5 | 2.2 | 31 |
| 0.0159 | 1.23 | OC[C@H]1O[C@@H](n2cnc3c(NCCCCc4ccccc4)ncnc32)[C@H](O)[C@@H]1O | 32 | > 100 |  |  |  |
| 0.023 | 0.42 | OC[C@H]1O[C@@H](n2cnc3c(NCCCc4ccccc4)ncnc32)[C@H](O)[C@@H]1O | 19 | > 100 |  |  |  |
| 0.146 | 2.2 | OC[C@H]1OC(n2cnc3c(NCCCCC(c4ccccc4)c4ccccc4)ncnc32)[C@H](O)[C@@H]1O (stereo partly specified) | 30 | > 100 |  |  |  |
| 0.079 | 0.29 | OC[C@H]1OC(n2cnc3c(NCCC(c4ccccc4)c4ccccc4)ncnc32)[C@H](O)[C@@H]1O (stereo partly specified) | 33 | > 100 |  |  |  |
| 0.29 | 4.7 | OC[C@H]1OC(n2cnc3c(NCCCC(c4ccccc4)c4ccccc4)ncnc32)[C@H](O)[C@@H]1O (stereo partly specified) | 32 | > 100 |  |  |  |
|  | 0.28 | OC[C@H]1O[C@@H](n2cnc3c(NCc4ccccc4)ncnc32)[C@H](O)[C@@H]1O [N6-BENZYLADENOSINE] | 22 | > 100 |  |  |  |
| 0.0046 | 0.66 | OC[C@H]1O[C@@H](n2cnc3c(Nc4ccccc4)ncnc32)[C@H](O)[C@@H]1O [N6-PHENYLADENOSINE] | 25 | 30 |  |  |  |
